Drawing on ChEMBL document CHEMBL3784917, “Recent Progress in Histone Demethylase Inhibitors” (J Med Chem, 2016), this text covers IC50 for eleven compounds.

Test [1] addresses T1, Amine oxidase [flavin-containing] B (Homo sapiens, UniProt P27338).
T1 sequence (P27338 whole entry): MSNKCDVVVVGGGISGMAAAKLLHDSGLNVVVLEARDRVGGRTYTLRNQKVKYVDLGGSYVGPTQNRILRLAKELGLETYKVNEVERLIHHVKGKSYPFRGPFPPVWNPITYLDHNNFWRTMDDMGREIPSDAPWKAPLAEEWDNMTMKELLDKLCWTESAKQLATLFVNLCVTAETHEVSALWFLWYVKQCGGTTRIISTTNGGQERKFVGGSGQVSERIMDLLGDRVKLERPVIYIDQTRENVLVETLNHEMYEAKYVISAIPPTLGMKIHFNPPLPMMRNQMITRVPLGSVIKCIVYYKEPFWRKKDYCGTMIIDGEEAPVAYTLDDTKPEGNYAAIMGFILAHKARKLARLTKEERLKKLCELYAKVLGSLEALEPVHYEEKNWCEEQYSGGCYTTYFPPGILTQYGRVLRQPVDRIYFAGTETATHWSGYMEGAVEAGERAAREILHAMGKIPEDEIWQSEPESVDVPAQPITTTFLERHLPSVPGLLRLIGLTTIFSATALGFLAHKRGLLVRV

The target of test [2] is T2, Lysine-specific histone demethylase 1A (Homo sapiens, UniProt O60341). Put plainly: biochemical.
In test [3] the target is T2, Lysine-specific histone demethylase 1A.
A short description of test [4]: Antiproliferative activity against human KYSE-150 cells expressing KDM4C. It is filed as functional, cell-based.
Test [5] concerns the target T3, Lysine-specific demethylase 5B (Homo sapiens, UniProt Q9UGL1).
Test [6] concerns the target T4, Lysine-specific demethylase 4C (Homo sapiens, UniProt Q9H3R0).
T4 sequence (Q9H3R0 whole entry): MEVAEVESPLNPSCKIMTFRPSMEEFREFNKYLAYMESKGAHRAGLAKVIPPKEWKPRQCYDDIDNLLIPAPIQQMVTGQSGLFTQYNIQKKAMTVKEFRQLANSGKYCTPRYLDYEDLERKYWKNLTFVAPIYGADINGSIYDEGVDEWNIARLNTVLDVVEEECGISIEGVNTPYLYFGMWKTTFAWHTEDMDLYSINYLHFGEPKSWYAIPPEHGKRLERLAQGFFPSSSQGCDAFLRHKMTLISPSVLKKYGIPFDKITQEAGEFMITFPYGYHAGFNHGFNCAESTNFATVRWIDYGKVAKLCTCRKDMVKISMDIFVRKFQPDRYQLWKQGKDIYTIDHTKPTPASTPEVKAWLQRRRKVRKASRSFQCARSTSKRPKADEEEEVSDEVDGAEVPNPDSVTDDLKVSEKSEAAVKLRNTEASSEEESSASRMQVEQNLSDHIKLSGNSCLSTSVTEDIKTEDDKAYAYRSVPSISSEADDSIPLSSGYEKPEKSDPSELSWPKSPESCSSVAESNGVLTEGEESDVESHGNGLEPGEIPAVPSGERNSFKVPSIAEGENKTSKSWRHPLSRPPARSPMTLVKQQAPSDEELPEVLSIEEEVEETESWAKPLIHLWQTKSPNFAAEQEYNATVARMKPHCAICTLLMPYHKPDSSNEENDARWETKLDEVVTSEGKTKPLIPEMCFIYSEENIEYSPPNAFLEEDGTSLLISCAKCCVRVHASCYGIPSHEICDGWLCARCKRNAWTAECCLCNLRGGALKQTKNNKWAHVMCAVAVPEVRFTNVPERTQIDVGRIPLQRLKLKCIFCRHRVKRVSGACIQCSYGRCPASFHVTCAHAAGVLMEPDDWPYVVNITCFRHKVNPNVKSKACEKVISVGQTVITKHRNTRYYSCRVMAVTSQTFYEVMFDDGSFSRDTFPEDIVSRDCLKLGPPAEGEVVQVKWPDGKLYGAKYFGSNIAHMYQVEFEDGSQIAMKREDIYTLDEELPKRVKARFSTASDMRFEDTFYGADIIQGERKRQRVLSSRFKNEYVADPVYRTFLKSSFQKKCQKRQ
Put plainly: Inhibition of recombinant N-terminal FLAG-tagged Tev-KDM4C (1 to 366 residues) (unknown origin) using […] as substrate preincubated for 10 mins followed by substrate addition by rapid fire demethylase assay.

Test [7] addresses Lysine-specific demethylase 5A (Homo sapiens, UniProt P29375).
The target in test [8] is T5, Lysine-specific demethylase 2B (Homo sapiens, UniProt Q8NHM5).
T5 sequence (Q8NHM5 whole entry): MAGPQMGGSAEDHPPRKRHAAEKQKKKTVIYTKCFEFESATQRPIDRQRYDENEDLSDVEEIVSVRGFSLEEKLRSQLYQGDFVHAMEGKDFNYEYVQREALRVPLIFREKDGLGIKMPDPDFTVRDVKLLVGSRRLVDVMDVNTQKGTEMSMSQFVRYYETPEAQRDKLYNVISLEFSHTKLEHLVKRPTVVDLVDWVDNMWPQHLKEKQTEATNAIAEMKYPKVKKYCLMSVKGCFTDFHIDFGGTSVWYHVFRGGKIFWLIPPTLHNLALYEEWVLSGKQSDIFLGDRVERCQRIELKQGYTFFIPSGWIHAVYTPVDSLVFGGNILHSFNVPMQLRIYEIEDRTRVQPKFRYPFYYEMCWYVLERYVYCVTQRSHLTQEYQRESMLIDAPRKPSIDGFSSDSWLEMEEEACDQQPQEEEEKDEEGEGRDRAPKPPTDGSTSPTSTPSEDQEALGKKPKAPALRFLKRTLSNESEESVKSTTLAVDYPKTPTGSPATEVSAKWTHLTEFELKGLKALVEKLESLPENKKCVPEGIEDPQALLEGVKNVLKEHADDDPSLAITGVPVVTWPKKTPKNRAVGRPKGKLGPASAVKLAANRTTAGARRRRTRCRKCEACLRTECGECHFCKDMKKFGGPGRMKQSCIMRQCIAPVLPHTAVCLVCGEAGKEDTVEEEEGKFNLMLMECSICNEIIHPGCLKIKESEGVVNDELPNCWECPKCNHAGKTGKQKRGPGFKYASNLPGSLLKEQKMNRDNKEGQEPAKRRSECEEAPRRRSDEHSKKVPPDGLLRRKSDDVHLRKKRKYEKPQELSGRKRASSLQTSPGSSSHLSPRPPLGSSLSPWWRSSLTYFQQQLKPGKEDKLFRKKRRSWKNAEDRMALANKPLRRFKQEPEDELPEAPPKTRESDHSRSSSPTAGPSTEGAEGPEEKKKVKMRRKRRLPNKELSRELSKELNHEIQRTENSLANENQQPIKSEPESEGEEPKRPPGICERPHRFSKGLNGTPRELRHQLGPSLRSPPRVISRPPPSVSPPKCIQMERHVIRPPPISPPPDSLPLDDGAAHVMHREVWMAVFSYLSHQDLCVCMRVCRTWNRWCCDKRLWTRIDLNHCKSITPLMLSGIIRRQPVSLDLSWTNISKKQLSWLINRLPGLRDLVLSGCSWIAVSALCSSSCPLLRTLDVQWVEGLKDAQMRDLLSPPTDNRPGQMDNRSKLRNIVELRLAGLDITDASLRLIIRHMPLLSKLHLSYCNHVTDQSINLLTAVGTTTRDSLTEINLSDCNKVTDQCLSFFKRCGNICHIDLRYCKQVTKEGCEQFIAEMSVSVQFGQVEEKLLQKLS
As to the kind of experiment: biochemical.

Test [9] addresses T3, Lysine-specific demethylase 5B. This is another data set of the same source.
Test [10] deals with Lysine-specific demethylase 6A (Homo sapiens, UniProt O15550).

Broadly, the IC50 is the midpoint of a concentration-inhibition curve.

Sequence of Lysine-specific demethylase 5A (P29375 whole entry): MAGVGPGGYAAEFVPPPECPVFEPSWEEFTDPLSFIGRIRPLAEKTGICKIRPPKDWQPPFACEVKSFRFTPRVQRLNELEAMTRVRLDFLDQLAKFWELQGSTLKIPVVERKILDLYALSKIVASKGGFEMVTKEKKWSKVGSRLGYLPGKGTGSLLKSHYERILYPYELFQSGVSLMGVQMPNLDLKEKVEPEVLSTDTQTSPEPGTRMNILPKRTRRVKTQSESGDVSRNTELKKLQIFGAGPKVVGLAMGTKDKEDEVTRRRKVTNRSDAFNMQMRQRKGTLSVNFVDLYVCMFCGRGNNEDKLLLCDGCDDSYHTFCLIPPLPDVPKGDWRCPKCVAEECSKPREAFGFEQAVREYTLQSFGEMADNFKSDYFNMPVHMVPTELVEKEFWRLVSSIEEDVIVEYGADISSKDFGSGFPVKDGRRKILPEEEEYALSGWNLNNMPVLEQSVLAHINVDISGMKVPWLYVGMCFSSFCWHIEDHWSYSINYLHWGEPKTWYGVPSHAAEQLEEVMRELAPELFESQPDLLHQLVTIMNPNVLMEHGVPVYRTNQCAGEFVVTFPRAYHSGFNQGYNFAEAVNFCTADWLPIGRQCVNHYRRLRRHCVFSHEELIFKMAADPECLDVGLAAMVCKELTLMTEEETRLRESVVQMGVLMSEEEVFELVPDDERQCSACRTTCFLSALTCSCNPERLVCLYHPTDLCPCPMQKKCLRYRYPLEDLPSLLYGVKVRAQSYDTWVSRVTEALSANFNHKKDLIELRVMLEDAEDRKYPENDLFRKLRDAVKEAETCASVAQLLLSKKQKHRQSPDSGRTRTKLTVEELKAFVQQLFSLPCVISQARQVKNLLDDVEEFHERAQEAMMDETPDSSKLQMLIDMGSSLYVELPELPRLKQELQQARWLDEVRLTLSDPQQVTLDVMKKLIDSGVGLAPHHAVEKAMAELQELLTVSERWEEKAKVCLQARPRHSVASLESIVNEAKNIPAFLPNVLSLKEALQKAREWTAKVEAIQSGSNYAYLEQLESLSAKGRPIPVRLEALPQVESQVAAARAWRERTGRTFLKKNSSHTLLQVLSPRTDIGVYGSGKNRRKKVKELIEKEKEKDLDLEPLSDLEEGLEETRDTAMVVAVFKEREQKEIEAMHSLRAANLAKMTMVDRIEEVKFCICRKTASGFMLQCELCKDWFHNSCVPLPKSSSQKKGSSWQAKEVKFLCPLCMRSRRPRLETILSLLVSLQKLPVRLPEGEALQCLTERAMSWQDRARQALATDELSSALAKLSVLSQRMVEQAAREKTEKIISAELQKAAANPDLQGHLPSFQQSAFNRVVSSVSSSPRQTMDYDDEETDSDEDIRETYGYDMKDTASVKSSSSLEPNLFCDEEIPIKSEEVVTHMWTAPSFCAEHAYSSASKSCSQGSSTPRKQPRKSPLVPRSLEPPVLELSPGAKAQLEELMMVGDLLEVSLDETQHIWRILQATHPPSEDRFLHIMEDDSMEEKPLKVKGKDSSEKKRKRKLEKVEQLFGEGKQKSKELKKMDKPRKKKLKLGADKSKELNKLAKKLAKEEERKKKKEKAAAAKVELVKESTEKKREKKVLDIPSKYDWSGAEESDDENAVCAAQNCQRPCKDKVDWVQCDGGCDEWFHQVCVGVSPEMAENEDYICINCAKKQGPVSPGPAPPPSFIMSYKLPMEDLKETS
T3 sequence (Q9UGL1 whole entry): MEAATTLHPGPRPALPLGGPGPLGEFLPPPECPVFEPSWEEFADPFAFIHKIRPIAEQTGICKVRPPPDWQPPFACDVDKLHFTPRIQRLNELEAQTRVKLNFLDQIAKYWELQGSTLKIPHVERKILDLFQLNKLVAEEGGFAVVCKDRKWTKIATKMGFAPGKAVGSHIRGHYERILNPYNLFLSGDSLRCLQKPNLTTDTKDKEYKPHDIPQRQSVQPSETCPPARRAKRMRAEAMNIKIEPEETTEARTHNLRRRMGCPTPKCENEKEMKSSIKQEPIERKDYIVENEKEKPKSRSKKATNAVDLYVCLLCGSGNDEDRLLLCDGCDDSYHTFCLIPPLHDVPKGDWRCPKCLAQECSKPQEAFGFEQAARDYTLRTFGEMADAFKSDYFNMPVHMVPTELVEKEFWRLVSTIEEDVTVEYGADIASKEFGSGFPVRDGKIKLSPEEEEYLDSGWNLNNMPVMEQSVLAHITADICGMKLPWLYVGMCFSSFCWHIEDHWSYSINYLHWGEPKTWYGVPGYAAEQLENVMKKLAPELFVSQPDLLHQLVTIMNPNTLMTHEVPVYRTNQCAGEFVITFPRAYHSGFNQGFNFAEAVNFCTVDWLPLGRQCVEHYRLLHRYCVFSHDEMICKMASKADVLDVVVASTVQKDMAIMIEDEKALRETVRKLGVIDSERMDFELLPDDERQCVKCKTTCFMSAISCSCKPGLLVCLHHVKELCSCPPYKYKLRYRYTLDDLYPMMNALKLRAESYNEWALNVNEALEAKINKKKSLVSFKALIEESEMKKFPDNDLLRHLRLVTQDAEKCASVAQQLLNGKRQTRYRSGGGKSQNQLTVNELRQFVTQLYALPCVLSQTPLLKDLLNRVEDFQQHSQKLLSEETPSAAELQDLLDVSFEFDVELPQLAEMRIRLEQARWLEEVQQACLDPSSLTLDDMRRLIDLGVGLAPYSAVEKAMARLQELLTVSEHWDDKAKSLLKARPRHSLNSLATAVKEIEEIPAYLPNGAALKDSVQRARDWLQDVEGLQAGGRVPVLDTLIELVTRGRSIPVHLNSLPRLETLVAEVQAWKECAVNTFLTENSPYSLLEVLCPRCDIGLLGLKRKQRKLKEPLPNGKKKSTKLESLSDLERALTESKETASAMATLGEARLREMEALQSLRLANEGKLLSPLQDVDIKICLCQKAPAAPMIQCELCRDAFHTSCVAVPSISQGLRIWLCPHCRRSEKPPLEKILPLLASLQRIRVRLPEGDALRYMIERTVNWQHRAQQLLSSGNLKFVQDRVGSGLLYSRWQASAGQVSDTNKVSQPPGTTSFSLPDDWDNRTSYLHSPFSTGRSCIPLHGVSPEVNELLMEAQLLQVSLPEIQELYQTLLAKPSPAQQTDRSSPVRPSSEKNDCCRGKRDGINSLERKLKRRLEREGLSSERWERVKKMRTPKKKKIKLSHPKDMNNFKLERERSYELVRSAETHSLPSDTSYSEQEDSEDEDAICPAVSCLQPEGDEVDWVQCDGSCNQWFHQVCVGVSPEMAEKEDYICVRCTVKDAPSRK
Sequence of Lysine-specific demethylase 6A (O15550 whole entry): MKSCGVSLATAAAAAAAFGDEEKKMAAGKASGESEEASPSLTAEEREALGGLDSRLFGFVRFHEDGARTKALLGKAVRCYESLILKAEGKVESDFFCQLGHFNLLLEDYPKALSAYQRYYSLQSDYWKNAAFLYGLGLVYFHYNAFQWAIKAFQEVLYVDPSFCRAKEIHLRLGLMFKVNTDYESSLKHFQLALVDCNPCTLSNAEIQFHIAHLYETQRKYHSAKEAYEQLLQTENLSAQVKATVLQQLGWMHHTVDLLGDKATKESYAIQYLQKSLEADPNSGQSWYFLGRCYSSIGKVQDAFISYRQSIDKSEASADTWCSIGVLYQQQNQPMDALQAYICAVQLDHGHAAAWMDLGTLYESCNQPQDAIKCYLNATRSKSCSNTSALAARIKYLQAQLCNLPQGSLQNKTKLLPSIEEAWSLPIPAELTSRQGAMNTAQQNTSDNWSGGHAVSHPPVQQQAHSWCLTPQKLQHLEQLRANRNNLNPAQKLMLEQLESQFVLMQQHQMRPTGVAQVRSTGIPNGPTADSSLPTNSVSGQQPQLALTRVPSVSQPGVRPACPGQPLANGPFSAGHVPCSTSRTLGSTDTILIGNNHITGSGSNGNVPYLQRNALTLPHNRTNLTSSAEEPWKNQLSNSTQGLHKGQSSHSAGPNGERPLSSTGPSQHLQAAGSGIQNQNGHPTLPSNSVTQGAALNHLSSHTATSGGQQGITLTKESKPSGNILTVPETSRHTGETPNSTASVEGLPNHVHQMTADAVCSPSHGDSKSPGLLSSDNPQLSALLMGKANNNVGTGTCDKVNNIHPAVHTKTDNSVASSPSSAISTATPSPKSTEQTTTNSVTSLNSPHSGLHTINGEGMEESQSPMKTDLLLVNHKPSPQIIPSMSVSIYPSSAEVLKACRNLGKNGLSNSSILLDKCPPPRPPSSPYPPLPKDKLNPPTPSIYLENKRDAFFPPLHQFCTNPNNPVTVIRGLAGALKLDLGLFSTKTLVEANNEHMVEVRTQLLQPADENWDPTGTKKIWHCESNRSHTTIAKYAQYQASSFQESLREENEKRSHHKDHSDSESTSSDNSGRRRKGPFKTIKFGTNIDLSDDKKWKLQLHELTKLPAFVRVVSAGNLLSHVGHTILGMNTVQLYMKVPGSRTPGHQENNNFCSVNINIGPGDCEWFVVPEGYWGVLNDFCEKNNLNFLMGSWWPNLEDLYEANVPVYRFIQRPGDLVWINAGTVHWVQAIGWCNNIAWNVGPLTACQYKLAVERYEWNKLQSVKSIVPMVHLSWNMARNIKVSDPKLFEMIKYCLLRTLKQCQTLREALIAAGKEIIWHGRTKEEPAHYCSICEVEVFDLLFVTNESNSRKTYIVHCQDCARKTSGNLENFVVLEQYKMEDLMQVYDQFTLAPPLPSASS

In the case of `CN1CCC(CN[C@@H]2C[C@H]2c2ccccc2)CC1` (racemic), the half-inhibitory concentration (IC50) was found to be 25000 nM in test [1] and 6 nM in [2].
`c1ccc(CN2CCC(CN[C@@H]3C[C@H]3c3ccccc3)CC2)cc1` (racemic): the IC50 was determined as 25000 nM in test [1] and 6 nM in test [2].
`Nc1ccnc(N2CCC(N[C@@H]3C[C@H]3c3ccccc3)CC2)n1` showed a half-inhibitory concentration (IC50) in [3] of less than 100 nM.
Turning to `COC1(CN[C@@H]2C[C@H]2c2ccccc2)CCN(S(=O)(=O)c2ccn(C)n2)CC1`, the IC50 in test [3] was less than 100 nM.
`CCS(=O)(=O)N1CC[C@H](n2cc(Oc3nc(O)c4ccncc4n3)cn2)C1`: the IC50 in [4] was 100 nM; in test [5], less than 100 nM; in test [6] it was less than 100 nM; in [7], less than 100 nM.
With `Cn1cnc(-c2nccc3c(O)nc(OCCCC(F)(F)F)nc23)c1`, the 50% inhibitory concentration (IC50) in test [4] was 100 nM; in [5], less than 100 nM; in test [6], 100 nM; in test [7], less than 100 nM.
Take `Oc1nc(Oc2cnn(CCN3CCOCC3)c2)nc2cnccc12`: the IC50 in test [4] was 100 nM; in test [5] it was less than 100 nM; in [6], less than 100 nM; in test [7], less than 100 nM.
Turning to `Oc1nc(Oc2cnn([C@@H]3CCCN(Cc4ccccc4)C3)c2)nc2cnccc12`, the IC50 is 100 nM in test [4], less than 100 nM in [5], less than 100 nM in [6] and less than 100 nM in test [7].
In test [3], `CN(C)CC(=O)N1CCC(CN[C@@H]2C[C@H]2c2ccccc2)(Cc2cccc(C#N)c2)CC1` yielded an IC50 of less than 100 nM.
With `O=C(O)CC1(N2CCC(N[C@@H]3C[C@H]3c3ccccc3)CC2)CN(CCC(F)(F)F)C1`, the IC50 in test [3] was less than 100 nM.
`CCN1CCC[C@H](CNCc2cc(C(=O)O)ccn2)C1=O`: the IC50 in [8] was less than 250 nM; in [9], less than 250 nM; in [10] it was greater than 2500 nM.
